According to ChEMBL document CHEMBL5625191, “A review of progress in o-aminobenzamide-based HDAC inhibitors with dual targeting capabilities for cancer therapy” (Eur J Med Chem, 2023):
Values belong to the compound of their own block, whether it stands above or below them.

What was measured:
Histone deacetylase = assay: Inhibition of HDAC (unknown origin); type: protein assay, Homo sapiens
Histone deacetylase 1 [1] = molecular target: T1, Histone deacetylase 1 (Homo sapiens, UniProt Q13547); assay: Inhibition of HDAC1 (unknown origin)
T1 sequence (Q13547 whole entry): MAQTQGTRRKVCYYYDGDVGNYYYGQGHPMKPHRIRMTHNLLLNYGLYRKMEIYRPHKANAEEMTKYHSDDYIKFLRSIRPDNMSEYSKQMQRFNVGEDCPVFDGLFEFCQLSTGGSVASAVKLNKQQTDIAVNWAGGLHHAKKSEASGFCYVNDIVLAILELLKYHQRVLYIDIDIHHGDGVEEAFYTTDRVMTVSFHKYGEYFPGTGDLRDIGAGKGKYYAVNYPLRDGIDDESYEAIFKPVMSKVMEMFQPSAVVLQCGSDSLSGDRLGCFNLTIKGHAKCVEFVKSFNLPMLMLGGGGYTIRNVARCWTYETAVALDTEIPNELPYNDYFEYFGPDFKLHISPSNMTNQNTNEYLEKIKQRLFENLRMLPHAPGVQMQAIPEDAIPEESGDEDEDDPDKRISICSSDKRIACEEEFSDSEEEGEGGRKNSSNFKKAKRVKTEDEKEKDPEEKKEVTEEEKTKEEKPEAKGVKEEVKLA

HCT-116 [2] = assay: Antiproliferative activity against human HCT-116 cells assessed as inhibition of cell growth; type: functional, cell-based
Histone deacetylase 2 [3] = molecular target: T2, Histone deacetylase 2 (Homo sapiens, UniProt Q92769); assay: Inhibition of HDAC2 (unknown origin)
T2 sequence (Q92769 whole entry): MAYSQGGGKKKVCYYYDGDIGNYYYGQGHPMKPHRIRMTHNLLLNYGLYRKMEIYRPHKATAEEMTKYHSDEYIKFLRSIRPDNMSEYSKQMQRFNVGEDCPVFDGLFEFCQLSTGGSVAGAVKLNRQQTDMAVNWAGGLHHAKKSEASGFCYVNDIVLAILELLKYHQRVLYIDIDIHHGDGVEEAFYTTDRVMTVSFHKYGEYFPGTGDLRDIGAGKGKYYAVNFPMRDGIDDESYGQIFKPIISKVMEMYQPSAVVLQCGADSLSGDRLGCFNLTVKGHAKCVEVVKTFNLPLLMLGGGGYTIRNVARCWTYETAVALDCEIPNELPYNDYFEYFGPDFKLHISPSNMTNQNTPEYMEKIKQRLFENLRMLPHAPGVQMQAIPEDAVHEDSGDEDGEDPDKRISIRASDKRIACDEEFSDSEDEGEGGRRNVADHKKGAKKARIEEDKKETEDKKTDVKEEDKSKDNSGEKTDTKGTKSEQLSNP

[4] = Antiproliferative activity against human Bortezomib-resistant RPMI-8226 cells assessed as inhibition of cell growth incubated for 72 hrs by XTT assay; type: functional, cell-based; conditions: Bortezomib-resistant RPMI-8226, 72 h
RPMI-8226 = assay: Antiproliferative activity against human RPMI-8226 cells assessed as inhibition of cell growth incubated for 72 hrs by XTT assay; type: functional, cell-based; conditions: RPMI-8226, 72 h
[5] = molecular target: Histone deacetylase (Homo sapiens) (UniProt Q13547+O15379+Q9UBN7+Q92769+Q9UQL6+Q8WUI4+Q9BY41+Q96DB2+P56524+Q9UKV0+Q969S8); assay: Inhibition of HDAC in human RPMI-8226 cells at 10 uM incubated for 8 hrs relative to control; type: cell-based
Histone deacetylase 1 [6] = molecular target: T1, Histone deacetylase 1; assay: Inhibition of full length C-terminal his6-tagged human recombinant HDAC1 (1 to 482 residues) expressed in Sf9 cells using fluorogenic Boc-Lys(Ac)-AMC as substrate incubated for 90 mins by Synergy H1 plate reader analysis
[7] = molecular target: Macrophage migration inhibitory factor (Homo sapiens, UniProt P14174); assay: Inhibition of MIF (unknown origin) tautomerase activity incubated for 10 mins by microplate reader analysis
Macrophage migration inhibitory factor, sequence (P14174 whole entry, the tested form may be a part): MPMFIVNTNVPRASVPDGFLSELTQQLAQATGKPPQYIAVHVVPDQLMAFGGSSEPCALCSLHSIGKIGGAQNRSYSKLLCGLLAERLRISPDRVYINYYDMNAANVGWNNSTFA

Histone deacetylase 3 [8] = molecular target: T3, Histone deacetylase 3 (Homo sapiens, UniProt O15379); assay: Inhibition of C-terminl his-tagged human recombinant HDAC3 (1 to 428 residues) expressed in Sf9 cells using fluorogenic Boc-Lys(Ac)-AMC as substrate incubated for 90 mins by Synergy H1 plate reader analysis
T3 sequence (O15379 whole entry, the tested form may be a part): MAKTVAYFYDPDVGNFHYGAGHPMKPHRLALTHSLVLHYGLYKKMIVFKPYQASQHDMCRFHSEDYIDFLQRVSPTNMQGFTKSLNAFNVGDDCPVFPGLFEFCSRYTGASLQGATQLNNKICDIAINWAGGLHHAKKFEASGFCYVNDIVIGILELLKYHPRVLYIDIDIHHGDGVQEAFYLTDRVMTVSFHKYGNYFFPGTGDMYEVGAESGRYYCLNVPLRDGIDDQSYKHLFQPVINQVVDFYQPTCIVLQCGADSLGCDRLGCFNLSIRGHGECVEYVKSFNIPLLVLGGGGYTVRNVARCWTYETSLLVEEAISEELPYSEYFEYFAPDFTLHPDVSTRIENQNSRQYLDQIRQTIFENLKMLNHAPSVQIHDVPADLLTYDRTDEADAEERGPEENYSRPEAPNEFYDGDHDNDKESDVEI

Histone deacetylase 2 [9] = molecular target: T2, Histone deacetylase 2; assay: Inhibition of full length C-terminal FLAG-tagged human recombinant HDAC2 (1 to 488 residues) expressed in Sf9 cells using fluorogenic Boc-Lys(Ac)-AMC as substrate incubated for 90 mins by Synergy H1 plate reader analysis
Histone deacetylase 1 [10] = molecular target: T1, Histone deacetylase 1; assay: Inhibition of HDAC1 in human HeLa nuclear extract using Boc-Lys(Ac)-AMC or Boc-Lys(Tfa)-AMC as substrate preincubated for 5 mins followed by substrate addition and measured after 30 mins by fluorescence assay; type: cell-free
HEL = assay: Antiproliferative activity against human HEL cells assessed as inhibition of cell growth incubated for 48 hrs by MTT assay; type: functional, cell-based
MOLT-4 = assay: Antiproliferative activity against human MOLT-4 cells assessed as inhibition of cell growth incubated for 48 hrs by MTT assay; type: functional, cell-based; conditions: MOLT-4, 48 h
HCT-116 [11] = assay: Antiproliferative activity against human HCT-116 cells assessed as inhibition of cell growth incubated for 48 hrs by MTT assay; type: functional, cell-based; conditions: HCT-116, 48 h
HeLa = assay: Antiproliferative activity against human HeLa cells assessed as inhibition of cell growth incubated for 48 hrs by MTT assay; type: functional, cell-based
Histone deacetylase 3 [12] = molecular target: T3, Histone deacetylase 3; assay: Inhibition of HDAC3 in human HeLa nuclear extract using Boc-Lys(Ac)-AMC or Boc-Lys(Tfa)-AMC as substrate preincubated for 5 mins followed by substrate addition and measured after 30 mins by fluorescence assay; type: cell-free
Histone deacetylase 2 [13] = molecular target: T2, Histone deacetylase 2; assay: Inhibition of HDAC2 in human HeLa nuclear extract using Boc-Lys(Ac)-AMC or Boc-Lys(Tfa)-AMC as substrate preincubated for 5 mins followed by substrate addition and measured after 30 mins by fluorescence assay; type: cell-free
Jurkat = assay: Antiproliferative activity against human Jurkat cells assessed as inhibition of cell growth incubated for 48 hrs by MTT assay; type: functional, cell-based
PC-3 = assay: Antiproliferative activity against human PC-3 cells assessed as inhibition of cell growth incubated for 48 hrs by MTT assay; type: functional, cell-based; conditions: PC-3, 48 h
A549 [14] = assay: Antiproliferative activity against human A549 cells assessed as inhibition of cell growth incubated for 48 hrs by MTT assay; type: functional, cell-based; conditions: A549, 48 h
NCI-H2228 = assay: Antiproliferative activity against human NCI-H2228 cells assessed as inhibition of cell growth incubated for 72 hrs by CCK-8 assay; type: functional, cell-based; conditions: NCI-H2228, 72 h
SK-N-BE(2) = assay: Antiproliferative activity against human SK-N-BE(2) cells assessed as inhibition of cell growth incubated for 72 hrs by CCK-8 assay; type: functional, cell-based; conditions: SKNBE2, 72 h
HepG2 = assay: Antiproliferative activity against human HepG2 cells assessed as inhibition of cell growth incubated for 72 hrs by CCK-8 assay; type: functional, cell-based; conditions: HepG2, 72 h
A549 [15] = assay: Antiproliferative activity against human A549 cells assessed as inhibition of cell growth incubated for 72 hrs by CCK-8 assay; type: functional, cell-based; conditions: A549, 72 h
HCT-116 [16] = assay: Antitumor activity against human HCT-116 cells xenografted in BALB/c nude mouse assessed as tumor growth inhibition at 30 mg/kg, po administered for 3 days; type: functional; conditions: HCT-116, 72 h, time 3 day, read-out: TGI
HCT-116 [17] = assay: Antitumor activity against human HCT-116 cells xenografted in BALB/c nude mouse assessed as increase in increment ratio at 30 mg/kg, po administered for 3 days; type: functional; conditions: time 3 day
Tubulin = assay: Inhibition of tubulin polymerization (unknown origin); type: protein-complex assay, Homo sapiens
MGC-803 = assay: Antiproliferative activity against human MGC-803 cells assessed as inhibition of cell growth; type: functional, cell-based
KYSE-450 = assay: Antiproliferative activity against human KYSE-450 cells assessed as inhibition of cell growth; type: functional, cell-based

Structure (SMILES): CC(C)C[C@@H](NC(=O)[C@H](Cc1ccccc1)NC(=O)c1ccc(C(=O)Nc2ccccc2N)cc1)B1OC2CC3CC(C3(C)C)[C@@]2(C)O1 (some centres undefined)
IC50 [4]: 112 nM | IC50 (RPMI-8226): 37.1 nM | inhibition [5]: 33%

Structure (SMILES): Nc1ccccc1NC(=O)CCCCCOc1no[n+]([O-])c1S(=O)(=O)c1ccccc1
IC50 (Histone deacetylase 1 [10]): 470 nM | IC50 (HEL): 410 nM | IC50 (MOLT-4): 540 nM | IC50 (HCT-116 [11]): 770 nM | IC50 (HeLa): 1500 nM | IC50 (Histone deacetylase 3 [12]): 560 nM | IC50 (Histone deacetylase 2 [13]): 1140 nM | IC50 (Jurkat): 770 nM | IC50 (PC-3): 2500 nM | IC50 (A549 [14]): 980 nM

Structure (SMILES): Nc1ccccc1NC(=O)CCCCOc1no[n+]([O-])c1S(=O)(=O)c1ccccc1
IC50 (Histone deacetylase 1 [10]): 620 nM | inhibition in vivo at 30 mg/kg (HCT-116 [16]): 36% | IC50 (HEL): 320 nM | IC50 (MOLT-4): 590 nM | IC50 (HCT-116 [11]): 930 nM | IC50 (HeLa): 1230 nM | IC50 (Histone deacetylase 3 [12]): 620 nM | T/C (HCT-116 [17]): 57% | IC50 (Histone deacetylase 2 [13]): 1460 nM | IC50 (Jurkat): 540 nM | IC50 (PC-3): 2690 nM | IC50 (A549 [14]): 1030 nM

Structure (SMILES): COc1ccc(CN(C(=O)Cc2ccc(C(=O)Nc3ccccc3N)cc2)c2cc(OC)c(OC)c(OC)c2)cc1O
IC50 (Tubulin): 3640 nM | IC50 (MGC-803): 30 nM | IC50 (KYSE-450): 254 nM | IC50 (Histone deacetylase 1 [1]): 525 nM | IC50 (HCT-116 [2]): 172 nM

Structure (SMILES): CC(C)C[C@@H](NC(=O)[C@H](Cc1ccccc1)NC(=O)c1cnc(C(=O)Nc2ccccc2N)cn1)B1OC2CC3CC(C3(C)C)[C@@]2(C)O1 (some centres undefined)
IC50 [4]: 158 nM | IC50 (RPMI-8226): 9.5 nM | IC50 (Histone deacetylase): 23.6 nM | inhibition [5]: 33%

Results, then the compound that gave them:

IC50 (Histone deacetylase): 15000 nM
Structure (SMILES): CCN1CCN(c2cc(Nc3ncc(C(=O)Nc4ccccc4N)s3)ncn2)CC1

IC50 (Histone deacetylase 1 [1]): 1510 nM | IC50 (HCT-116 [2]): 2760 nM | IC50 (Histone deacetylase 2 [3]): 6250 nM
Structure (SMILES): CN1c2ccc(NCc3ccc(C(=O)Nc4ccccc4N)cc3)cc2C(=O)N2CCc3c([nH]c4ccccc34)[C@H]21

IC50 (Histone deacetylase 1 [6]): 200 nM | IC50 [7]: 180 nM | IC50 (Histone deacetylase 3 [8]): 600 nM | IC50 (Histone deacetylase 2 [9]): 1100 nM
Structure (SMILES): Nc1ccccc1NC(=O)c1ccc(NC(=O)Cc2ccc(N3Cc4ccc(O)cc4OC3=O)cc2)cc1

IC50 (NCI-H2228): 110 nM | IC50 (SK-N-BE(2)): 3 nM | IC50 (HepG2): 10 nM | IC50 (A549 [15]): 2 nM
Structure (SMILES): CC(C)S(=O)(=O)c1ccccc1Nc1nc(Nc2ccc(C(=O)Nc3ccccc3N)cc2)ncc1Cl

IC50 (Histone deacetylase 1 [1]): 2660 nM | IC50 (HCT-116 [2]): 7820 nM | IC50 (Histone deacetylase 2 [3]): 9370 nM
Structure (SMILES): COc1ccc2[nH]c3c(c2c1)CCN1C(=O)c2cc(NCc4ccc(C(=O)Nc5ccccc5N)cc4)ccc2N(C)[C@H]31
